{"source": "ChEMBL document CHEMBL1134403", "about": "“Structure-based approach for the discovery of bis-benzamidines as novel inhibitors of matriptase” (J Med Chem, 2001)", "key": {"[1]": {"target": "Prothrombin (Homo sapiens, UniProt P00734)", "assay": "compound was tested for inhibitory activity against Thrombin"}, "[2]": {"target": "T1, Suppressor of tumorigenicity 14 protein (Homo sapiens, UniProt Q9Y5Y6)", "T1 sequence (Q9Y5Y6 whole entry)": "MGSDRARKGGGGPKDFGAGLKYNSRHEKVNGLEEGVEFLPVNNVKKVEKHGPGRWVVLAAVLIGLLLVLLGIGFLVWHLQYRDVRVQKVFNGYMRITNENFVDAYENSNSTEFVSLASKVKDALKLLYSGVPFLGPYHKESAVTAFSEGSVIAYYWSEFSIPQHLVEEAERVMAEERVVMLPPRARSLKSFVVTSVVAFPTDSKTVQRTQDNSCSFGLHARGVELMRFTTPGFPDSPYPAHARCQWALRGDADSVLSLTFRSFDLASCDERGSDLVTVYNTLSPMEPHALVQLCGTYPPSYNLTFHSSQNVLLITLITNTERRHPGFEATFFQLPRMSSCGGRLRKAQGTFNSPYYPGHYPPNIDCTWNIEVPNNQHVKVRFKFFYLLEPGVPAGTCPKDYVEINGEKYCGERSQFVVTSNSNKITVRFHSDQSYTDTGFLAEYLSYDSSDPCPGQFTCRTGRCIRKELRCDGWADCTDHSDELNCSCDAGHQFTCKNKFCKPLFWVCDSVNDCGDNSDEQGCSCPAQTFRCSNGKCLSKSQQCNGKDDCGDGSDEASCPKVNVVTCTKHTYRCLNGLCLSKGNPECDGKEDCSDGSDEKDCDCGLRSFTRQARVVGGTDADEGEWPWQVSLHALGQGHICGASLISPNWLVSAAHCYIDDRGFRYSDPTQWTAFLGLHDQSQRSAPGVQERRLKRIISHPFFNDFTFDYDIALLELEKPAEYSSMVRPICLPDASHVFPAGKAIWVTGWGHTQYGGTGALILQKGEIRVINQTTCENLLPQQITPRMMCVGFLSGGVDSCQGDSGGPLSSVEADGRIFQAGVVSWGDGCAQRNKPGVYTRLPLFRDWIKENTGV", "assay": "compound was tested for inhibitory activity against Matriptase"}}, "data": [{"smiles": "N=C(N)c1ccc(OCCCCCCOc2ccc(C(=N)N)cc2I)cc1", "values": [{"measurement": "Ki", "setting": "[1]", "result": 0.796, "unit": "µM"}]}, {"smiles": "N=C(N)c1ccc(Oc2ccc(Oc3ccc(C(=N)N)cc3)cc2)cc1", "values": [{"measurement": "Ki", "setting": "[1]", "result": 2.67, "unit": "µM"}]}, {"smiles": "N=C(N)c1ccc(CCc2ccc(C(=N)N)cc2)cc1", "values": [{"measurement": "Ki", "setting": "[2]", "result": "> 10", "unit": "µM"}]}, {"smiles": "N=C(N)c1ccc(OCCCOc2ccc(C(=N)N)cc2Br)c(Br)c1", "note": "[DIBROMPROPAMIDINE]", "values": [{"measurement": "Ki", "setting": "[1]", "result": 0.946, "unit": "µM"}]}, {"smiles": "N=C(N)c1ccc(OCCCCCCOc2ccc(C(=N)N)cc2)cc1", "note": "[HEXAMIDINE]", "values": [{"measurement": "Ki", "setting": "[1]", "result": 0.224, "unit": "µM"}]}]}
